Experimental data taken from PubChem BioAssay AID308 (DTP/NCI, 2004).
Toxic doses and inconclusive results are not listed. The calls were made as follows: active = survival T/C of 150% or more; inactive = T/C below 125% in these data.

Test system: BDF1 mice, L1210 6-MP/6-TG resistant leukemia ip, survival T/C
Test: NCI In Vivo Anticancer Drug Screen. Data for tumor model L1210 Leukemia resistant to 6-MP and 6-Thioguanine; NSC 755, NSC 752 (intraperitoneal) in B6D2F1 (BDF1) mice
Conditions: endpoint: mean survival time, higher = longer survival
Protocol: The antitumor activity of compounds was measured in mice bearing transplantable tumors. Survival or tumor size were measured and the results are expressed as the measurement made in the treated group (T) divided by the measurement made in the vehicle treated control group (C). The tumor model used in this assay is L1210 Leukemia resistant to 6-MP and 6-Thioguanine; NSC 755, NSC 752 (intraperitoneal) in B6D2F1 (BDF1) mice

Measured: T/C

CN(C)[C@@H]1C(=O)C(C(=O)NCNc2nc3n[nH]nc3c(=O)[nH]2)=C(O)[C@@]2(O)C(=O)C3=C(O)c4c(O)cccc4[C@@](C)(O)[C@H]3C[C@@H]12
inactive: dose: 50.0 mg/kg/injection, schedule: Q01DX009 (ip), vehicle: saline 100 % of control | dose: 100.0 mg/kg/injection, schedule: Q01DX009 (ip), vehicle: saline 104 % of control | dose: 200.0 mg/kg/injection, schedule: Q01DX009 (ip), vehicle: saline 100 % of control | dose: 400.0 mg/kg/injection, schedule: Q01DX009 (ip), vehicle: saline 100 % of control

CN(C)[C@@H]1C(=O)C(C(=O)NCc2nc3[nH]cnc(=S)c3[nH]2)=C(O)[C@@]2(O)C(=O)C3=C(O)c4c(O)cccc4[C@@](C)(O)[C@H]3C[C@@H]12
inactive: dose: 50.0 mg/kg/injection, schedule: Q01DX009 (ip), vehicle: carboxymethylcellulose (CMC) 105 % of control | dose: 100.0 mg/kg/injection, schedule: Q01DX009 (ip), vehicle: carboxymethylcellulose (CMC) 104 % of control | dose: 400.0 mg/kg/injection, schedule: Q01DX009 (ip), vehicle: carboxymethylcellulose (CMC) 93 % of control

C[C@]12C=CC(=O)C=C1CC[C@@H]1[C@@H]2C(=O)C[C@@]2(C)[C@H]1CC[C@]2(O)C(=O)CO
inactive: dose: 50.0 mg/kg/injection, schedule: Q01DX Z (sc), vehicle: steriod suspending solution 105 % of control | dose: 100.0 mg/kg/injection, schedule: Q01DX Z (sc), vehicle: steriod suspending solution 100 % of control | dose: 150.0 mg/kg/injection, schedule: Q01DX Z (sc), vehicle: steriod suspending solution 93 % of control | dose: 200.0 mg/kg/injection, schedule: Q01DX Z (sc), vehicle: steriod suspending solution 96 % of control

CCC(=O)OCC1OC(n2cnc3c(=S)nc(N)[nH]c32)C(OC(=O)CC)C1OC(=O)CC (configuration not stated)
inactive: dose: 5.0 mg/kg/injection, schedule: Q01DX Z (ip), vehicle: carboxymethylcellulose (CMC) 109 % of control | dose: 10.0 mg/kg/injection, schedule: Q01DX Z (ip), vehicle: carboxymethylcellulose (CMC) 117 % of control | dose: 20.0 mg/kg/injection, schedule: Q01DX Z (ip), vehicle: carboxymethylcellulose (CMC) 109 % of control | dose: 40.0 mg/kg/injection, schedule: Q01DX Z (ip), vehicle: carboxymethylcellulose (CMC) 103 % of control

CSc1ncnc2c1ncn2C1CC(O)C(CO)O1 (configuration not stated)
inactive: dose: 32.0 mg/kg/injection, schedule: Q## X032 (ip), vehicle: saline 105 % of control | dose: 48.0 mg/kg/injection, schedule: Q## X032 (ip), vehicle: saline 96 % of control | dose: 72.0 mg/kg/injection, schedule: Q## X032 (ip), vehicle: saline 107 % of control

N[C@@H](Cc1ccc(N(CCCl)CCCl)cc1)C(=O)O
inactive: dose: 4.0 mg/kg/injection, schedule: Q01DX Z (ip), vehicle: carboxymethylcellulose (CMC) 107 % of control | dose: 6.0 mg/kg/injection, schedule: Q01DX Z (ip), vehicle: carboxymethylcellulose (CMC) 122 % of control | dose: 8.0 mg/kg/injection, schedule: Q01DX Z (ip), vehicle: carboxymethylcellulose (CMC) 119 % of control | dose: 12.0 mg/kg/injection, schedule: Q01DX Z (ip), vehicle: carboxymethylcellulose (CMC) 122 % of control

Cn1c(N)nc2nc[nH]c2c1=S
inactive: dose: 18.75 mg/kg/injection, schedule: Q01DX Z (ip), vehicle: carboxymethylcellulose (CMC) 98 % of control | dose: 37.5 mg/kg/injection, schedule: Q01DX Z (ip), vehicle: carboxymethylcellulose (CMC) 109 % of control | dose: 75.0 mg/kg/injection, schedule: Q01DX Z (ip), vehicle: carboxymethylcellulose (CMC) 109 % of control

CN(N=O)C(=O)NCCSc1ncnc2nc[nH]c12
inactive: dose: 88.0 mg/kg/injection, schedule: Q01DX015 (ip), vehicle: other 104 % of control | dose: 132.0 mg/kg/injection, schedule: Q01DX015 (ip), vehicle: other 108 % of control | dose: 200.0 mg/kg/injection, schedule: Q01DX015 (ip), vehicle: other 108 % of control | dose: 300.0 mg/kg/injection, schedule: Q01DX015 (ip), vehicle: other 102 % of control

Cc1c(O)ccc(=O)n1O
inactive: dose: 73.0 mg/kg/injection, schedule: Q01DX Z (ip), vehicle: other 108 % of control | dose: 165.0 mg/kg/injection, schedule: Q01DX Z (ip), vehicle: other 103 % of control

c1ccc(CNc2ncnc3[nH]ncc23)cc1
inactive: dose: 1.5 mg/kg/injection, schedule: Q01DX Z (ip), vehicle: carboxymethylcellulose (CMC) 96 % of control | dose: 3.0 mg/kg/injection, schedule: Q01DX Z (ip), vehicle: carboxymethylcellulose (CMC) 93 % of control | dose: 6.25 mg/kg/injection, schedule: Q01DX Z (ip), vehicle: carboxymethylcellulose (CMC) 101 % of control | dose: 12.5 mg/kg/injection, schedule: Q01DX Z (ip), vehicle: carboxymethylcellulose (CMC) 88 % of control | dose: 25.0 mg/kg/injection, schedule: Q01DX Z (ip), vehicle: carboxymethylcellulose (CMC) 92 % of control | dose: 50.0 mg/kg/injection, schedule: Q01DX Z (ip), vehicle: carboxymethylcellulose (CMC) 93 % of control
